Consider 13 compounds from publication PMC9971447 (Asian Pacific Journal of Cancer Prevention : APJCP, 2022).

Data set [1] has as its system RAW 264.7 mouse macrophage cell line (nitric oxide synthase readout). Description: LPS-triggered NO. It counts as cell-based. The note with it: for antiinflammation potency compared with indomethacin: LPS-triggered inflammation in RAW macrophages, in words.
The test system of another data set is SW480. Description: SRB antiproliferation assay, SW480 colorectal cancer cells. It counts as cell-based. (Sulforhodamine B stains cellular protein and so reports cell mass.)
Data set [2] deals with T47D. Kind of data set: SRB antiproliferation assay, T47D breast cancer cells. It counts as cell-based.
In another data set the test system is MCF7. Kind of data set: SRB antiproliferation assay, MCF7 breast cancer cells. It counts as cell-based.
Another data set deals with PANC1. Kind of data set: SRB antiproliferation assay, PANC1 pancreatic cells. It counts as cell-based.
For a further data set, the system named is HCT116. Kind of data set: SRB antiproliferation assay, HCT116 colorectal cancer cells. It counts as cell-based.
Data set [3] has as its system colorectal cancer cell lines. To be noted: ref Mamdooh et al., 2019; cited from earlier work.
A further data set relates to HT29. Kind of data set: SRB antiproliferation assay, HT29 colorectal cancer cells. It counts as cell-based. The note with it: read-out: Cytotoxicity (as of %Control) IC50 value, HT29, 72 h incubations, mean ± SD, n = 3.
Data set [4] has as its system SW620. Description: SRB antiproliferation assay, SW620 colorectal cancer cells. It counts as cell-based. To be noted: read-out: Cytotoxicity (as of %Control) IC50 value, SW620, 72 h incubations, mean ± SD, n = 3.
Data set [5] deals with SW620. To be noted: read-out: IC50 value in SW620 cells; ref Mamdooh et al., 2019; cited from earlier work.
The test system of data set [6] is T47D. The note with it: read-out: antiproliferative IC50, T47D cell line; ref AlKhalil et al., 2020; cited from earlier work.
For a further data set, the system named is A375.2S cell line. To be noted: read-out: antiproliferative IC50, A375.2S cell line; ref AlKhalil et al., 2020; cited from earlier work.
Another data set relates to CACO2. Kind of data set: SRB antiproliferation assay, CACO2 colorectal cancer cells. To be noted: read-out: Cytotoxicity (as of %Control) IC50 value, CACO2, 72 h incubations, mean ± SD, n = 3.
Setting [7] is: Mus musculus, RAW264.7, 24 h, read-out: NOS- IC50 value, LPS 20 μg/mL, RAW264.7, 24h incubations, mean ± SD, n = 3.
The mark [8] stands for this setting: read-out: NOS- IC50 value, LPS 20 μg/mL, RAW264.7, 24h incubations, mean ± SD, n = 3.
Setting [9] is: Homo sapiens, SW480, 72 h, read-out: Cytotoxicity (as of %Control) IC50 value, SW480, SRB, 72 h incubations, mean ± SD, n = 3.
The mark [10] stands for this setting: read-out: Cytotoxicity (as of %Control) IC50 value, SW480, SRB, 72 h incubations, mean ± SD, n = 3.
Where [11] appears, read: Homo sapiens, T47D, 72 h, read-out: Cytotoxicity (as of %Control) IC50 value, T47D, SRB, 72 h incubations, mean ± SD, n = 3.
Setting [12] is: read-out: Cytotoxicity (as of %Control) IC50 value, MCF7, SRB, 72 h incubations, mean ± SD, n = 3.
[13] abbreviates: Homo sapiens, PANC-1, 72 h, read-out: Cytotoxicity (as of %Control) IC50 value, PANC 1, SRB, 72 h incubations, mean ± SD, n = 3.
Setting [14] is: read-out: Cytotoxicity (as of %Control) IC50 value, T47D, SRB, 72 h incubations, mean ± SD, n = 3.
Setting [15] is: Homo sapiens, MCF7, 72 h, read-out: Cytotoxicity (as of %Control) IC50 value, MCF7, SRB, 72 h incubations, mean ± SD, n = 3.

Where two headings read alike, the source gives them in different places.

Consider `COc1ccc2c(c1)c(CC(=O)O)c(C)n2C(=O)c1ccc(Cl)cc1` [Indomethacin], for which the values for the IC50 in data set [1] (setting [7]) and in [1] (setting [8]) were 87 µM and 86.5 ± 10.5 µM, respectively.
In the case of `CC[C@H](C)C(=O)O[C@H]1CCC=C2C=C[C@H](C)[C@H](CC[C@@H]3C[C@@H](O)CC(=O)O3)[C@H]21` [Mevastatin], the IC50 in the data set on SW480 (setting [9]) is less than 50 µM; with SW480 (setting [10]), 36 µM; with T47D [2] (setting [11]), more than 50 µM; in the data set on MCF7 (setting [12]), more than 50 µM; in the data set on PANC1 (setting [13]), more than 50 µM; in data set [1] (setting [7]), 142 ± 17.2 µM. The “antiinflammation potency compared with indomethacin” value in data set [1] is “inferior antiinflammation potency to indomethacin”.
`COCc1c(C(C)C)nc(C(C)C)c(/C=C/[C@@H](O)C[C@@H](O)CC(=O)O)c1-c1ccc(F)cc1` [Cerivastatin]: the IC50 with HCT116 (Homo sapiens, HCT-116, 72 h, read-out: Cytotoxicity (as of %Control) IC50 value, HCT116, SRB, 72 h incubations, mean ± SD, n = 3) was 2.9 µM; in the data set with SW480 (setting [9]), 6 µM; with T47D [2] (setting [14]), less than 50 µM; in the data set with MCF7 (setting [15]), less than 50 µM; in the data set with PANC1 (setting [13]), less than 50 µM. The “NOS- IC50 value” in [1] (LPS 20 μg/mL, RAW264.7, 24h incubations, mean ± SD, n = 3) is “lack and noninhibitory”.
In the case of `CC(C)n1c(/C=C/C(O)CC(O)CC(=O)O)c(-c2ccc(F)cc2)c2ccccc21` (stereo not drawn) [Fluvastatin], the IC50 was more than 50 µM with T47D [2] (setting [14]), more than 50 µM in the data set on MCF7 (setting [12]), more than 50 µM in the data set on PANC1 (setting [13]) and 110 ± 20.6 µM in data set [1] (setting [7]). In addition, in data set [1], the “antiinflammation potency compared with indomethacin” value is reported as “equipotency to indomethacin”.
With `CCC(C)(C)C(=O)O[C@H]1C[C@@H](C)C=C2C=C[C@H](C)[C@H](CC[C@@H]3C[C@@H](O)CC(=O)O3)[C@H]21` [Simvastatin], the “antiinflammation potency compared with indomethacin” value in data set [1] is “substantially more potent”. Further, the IC50 in [1] (setting [7]) is 42 µM; in data set [1] (setting [8]) it was 42.5 ± 6.41 µM.
For `CO/N=C1\CN(c2nc3c(cc2F)c(=O)c(C(=O)O)cn3C2CC2)CC1CN` (stereo not drawn) [gemifloxacin], in data set [3], the “activity against CRC cell lines (in words)” value (shortened to “activity”) is “active”.
For the compound `CC[C@H](C)C(=O)O[C@H]1C[C@H](O)C=C2C=C[C@H](C)[C@H](CC[C@@H](O)C[C@@H](O)CC(=O)O)[C@H]21` [Pravastatin], the IC50 with HT29 was less than 50 µM; in the data set with PANC1 (setting [13]) it was more than 50 µM; in data set [1] (setting [7]), 204 ± 14.1 µM. The “antiinflammation potency compared with indomethacin” value in [1] is given as “inferior antiinflammation potency to indomethacin”.
On to `CC(C)c1c(C(=O)Nc2ccccc2)c(-c2ccccc2)c(-c2ccc(F)cc2)n1CC[C@@H](O)C[C@@H](O)CC(=O)O` [Atorvastatin], for which the IC50 was less than 50 µM in the data set with HCT116 (read-out: Cytotoxicity (as of %Control) IC50 value, HCT116, SRB, 72 h incubations, mean ± SD, n = 3); less than 50 µM with SW620 [4]; 42 µM in data set [1] (setting [7]); 42.8 ± 7.17 µM in data set [1] (setting [8]); 0.0018 µM with SW620 [5]; 34.6 µM with T47D [6]. In addition, the IC50 with A375.2S cell line was 0.0156 µM. The “antiinflammation potency compared with indomethacin” value in [1] is on record as “substantially more potent”.
On to `COc1cccc2c1C(=O)c1c(O)c3c(c(O)c1C2=O)C[C@@](O)(C(=O)CO)C[C@@H]3O[C@H]1C[C@H](N)[C@H](O)[C@H](C)O1` [Doxorubicin], for which the “activity” value in [3] is reported as “nanomolar”.
On to `O=C(O)c1cn(C2CC2)c2cc(N3CCNCC3)c(F)cc2c1=O` [ciprofloxacin], for which the “activity” value in data set [3] is given as “did not show any activity”.
For the compound `O=C(O)C[C@H](O)C[C@H](O)/C=C/c1c(C2CC2)nc2ccccc2c1-c1ccc(F)cc1` [Pitavastatin], the IC50 was more than 50 µM in the data set with T47D [2] (setting [14]); more than 50 µM in the data set with MCF7 (setting [15]); more than 50 µM in the data set on PANC1 (read-out: Cytotoxicity (as of %Control) IC50 value, PANC 1, SRB, 72 h incubations, mean ± SD, n = 3); 98.7 ± 1.87 µM in data set [1] (setting [7]). In addition, the “antiinflammation potency compared with indomethacin” value in data set [1] is “equipotency to indomethacin”.
Regarding `CC(C)c1nc(N(C)S(C)(=O)=O)nc(-c2ccc(F)cc2)c1/C=C/[C@@H](O)C[C@@H](O)CC(=O)O` [Rosuvastatin], the IC50 was 15 µM in the data set on SW620 [4]; 23 µM in the data set on SW480 (setting [10]); more than 50 µM in the data set on T47D [2] (setting [11]); 1.5 µM in the data set on MCF7 (setting [12]); more than 50 µM in the data set on PANC1 (setting [13]); 74.2 ± 13.1 µM in data set [1] (setting [7]). Besides, the “antiinflammation potency compared with indomethacin” value in data set [1] is given as “equipotency to indomethacin”.
For the compound `CC[C@H](C)C(=O)O[C@H]1C[C@@H](C)C=C2C=C[C@H](C)[C@H](CC[C@@H]3C[C@@H](O)CC(=O)O3)[C@H]21` [Lovastatin], the “antiinflammation potency compared with indomethacin” value in data set [1] was “substantially more potent”. Also, the IC50 was 42 µM in data set [1] (setting [7]), 41.6 ± 4.34 µM in [1] (setting [8]) and more than 100 µM in the data set on CACO2.
